Source: patent publication US10626106B2, “Substituted pyrrolidine amides I” (Gruenenthal GmbH, priority 2017, dated 2020)
Read-outs that look alike come from different tables or passages of the source.

Target: T1, Human Glucocorticoid Receptor (hGR) (Homo sapiens, UniProt P04150)
T1 construct: the resultant supernatant (=cytosol of IM9 cells) was centrifuged at 103,000 g for 60 minutes; host or cells: IM9 human lymphoblast cell line (cytosol fraction)
T1 sequence (P04150 1-777): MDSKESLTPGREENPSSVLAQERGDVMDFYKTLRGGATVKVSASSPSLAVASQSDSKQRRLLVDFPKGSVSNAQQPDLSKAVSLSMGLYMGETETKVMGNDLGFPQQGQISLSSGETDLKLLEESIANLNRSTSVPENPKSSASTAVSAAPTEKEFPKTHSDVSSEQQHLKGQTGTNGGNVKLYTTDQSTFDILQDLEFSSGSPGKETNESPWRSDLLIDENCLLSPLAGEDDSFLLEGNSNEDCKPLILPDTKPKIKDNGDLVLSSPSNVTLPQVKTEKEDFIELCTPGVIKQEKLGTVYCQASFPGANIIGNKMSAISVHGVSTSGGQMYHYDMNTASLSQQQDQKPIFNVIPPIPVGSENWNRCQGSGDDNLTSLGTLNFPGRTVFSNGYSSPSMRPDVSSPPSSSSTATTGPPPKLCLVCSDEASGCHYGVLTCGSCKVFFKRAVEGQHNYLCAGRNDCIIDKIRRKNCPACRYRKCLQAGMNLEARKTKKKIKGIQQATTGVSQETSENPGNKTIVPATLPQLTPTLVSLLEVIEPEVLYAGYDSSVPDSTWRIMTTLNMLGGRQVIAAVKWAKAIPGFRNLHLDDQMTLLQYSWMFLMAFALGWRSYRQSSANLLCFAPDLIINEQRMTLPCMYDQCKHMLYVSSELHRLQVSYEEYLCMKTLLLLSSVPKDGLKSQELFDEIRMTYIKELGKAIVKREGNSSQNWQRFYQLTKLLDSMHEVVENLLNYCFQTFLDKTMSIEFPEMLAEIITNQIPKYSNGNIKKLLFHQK
Assay: Human Glucocorticoid Receptor (hGR) Ligand-Binding Assay (competitive 3H-dexamethasone binding, IM9 cytosol)
Details: read-out: % inhibition hGR at 1 μM
Excerpt: Human Glucocorticoid Receptor (hGR) Ligand-Binding Assay
Potential selective glucocorticoid receptor modulators of this intervention can be tested for their binding affinity at the glucocorticoid receptor using the binding assay described below.
Preferably, the glucocortitcoid receptor extracted from cytosol of IM9 cells is used for competitive radioligand binding assays to calculate the IC50 values and binding affinity (Ki value) of the compounds according to the present invention. Preferably, a fixed concentration of the radioligand 3H-dexamethasone and a range of concentrations of compounds according to the present invention (as unlabeled competitors of dexamethasone) are mixed with the extracted glucocorticoid receptor in order to measure the potency/affinity with which they compete for the binding of the radioligand. Preferably, by using competition curves the IC50 which is the concentration of competing ligand that displaces 50% of the specific binding of the radioligand is determined. Finally this IC50 value is converted to a Ki value.
The human lymphoblast cell line IM9 (ATCC, Bethesda, Md.) were cultivated in RPMI 1640 media containing 10% fetal bovine serum, penicillin (100 U/ml), streptomycin (100 μg/ml), and 2 mM L-glutamine at […] and 7% CO2 in a humidified incubator. Cells were centrifuged for 10 minutes at 1500 g and were washed in PBS and repelleted. Cell were then resuspended in homogenization buffer consisting of: 10 mM TES, 10 mM sodium molybdate, 1 mM EDTA, pH 7.4, 20 mM 2-mercaptoethanol, and 10% glycerol. Disruption of the cells was performed by nitrogen cavitation using 2×15 minutes at 600 to 750 psi nitrogen in a N2 cavitator at 0° C. The cell preparation was then centrifuged at 27,000 g for 15 minutes, and the resultant supernatant (=cytosol of IM9 cells) was centrifuged at 103,000 g for 60 minutes at 4° C. The amount of protein in the supernatant fraction was determined using a BCA assay kit and aliquots were snap frozen in a dry ice-acetone bath and stored at −70° C. Competitive binding assays were done in duplicate in homogenization buffer with a total volume of 200 μl. To this end, 1 mg of IM9 cytosol, 0.05 μCi (1.5 nM) of 3H-dexamethasone […] and compounds according to the present invention (=unlabeled competitors of dexamethasone; range of concentrations) were mixed. The reaction was stopped after incubation at 0° C. for 16 to 18 hours by the addition of 100 μl of a charcoal-dextran mixture (2% activated charcoal, 0.5% dextran in 10 mM Tris, 1 mM EDTA, pH 7.4). Another incubation step at 0° C. for 10 minutes followed before the samples were centrifuged for 5 minutes at 8200 g. 100 μl of the supernatant) was finally assayed for radioactivity by liquid scintillationspectrometry, and the IC50 values were determined graphically and were converted to Ki values.

[1] = compound at 1 μM, competition with 3H-dexamethasone, cytosol of IM9 cells

Compound	inhibition at 1 µM [1] [%]	inhibition at 1 µM [%]
Cc1cnc(C(=O)N[C@H]2CC(=O)N(c3ccc4c(cnn4-c4ccc(=O)n(C)c4)c3)[C@@H]2c2ccccc2)s1 (relative stereo) [Example 13, 5-methyl-N-(trans-1-(1-(1-methyl-6-oxo-1,6-dihydropyridin-3-yl)-1H-indazol-5-yl)-5-oxo-2-phenylpyrrolidin-3-yl)thiazole-2-carboxamide]	> 85	–
Cn1cc(-n2ncc3cc(N4C(=O)C[C@H](NC(=O)C(C)(F)F)[C@H]4c4ccccc4F)ccc32)ccc1=O [Example 6, 2,2-difluoro-N-((2R,3S)-2-(2-fluorophenyl)-1-(1-(1-methyl-6-oxo-1,6-dihydropyridin-3-yl)-1H-indazol-5-yl)-5-oxopyrrolidin-3-yl)propanamide]	> 85	–
CC(F)(F)C(=O)N[C@H]1CC(=O)N(c2ccc3c(cnn3-c3ncc(F)cn3)c2)C1c1ccccc1 (stereo in doubt) [Example 47, N-(trans-1-(1-(5-fluoropyrimidin-2-yl)-1H-indazol-5-yl)-5-oxo-2-phenylpyrrolidin-3-yl)-2,2-difluoropropanamide]	–	60 to 85
CC(F)(F)C(=O)N[C@H]1CC(=O)N(c2ccc3c(cnn3-c3ccc(F)cn3)c2)C1c1ccccc1 (stereo in doubt) [Example 9, trans-2,2-difluoro-N-(1-(1-(5-fluoropyridin-2-yl)-1H-indazol-5-yl)-5-oxo-2-phenylpyrrolidin-3-yl)propanamide]	–	> 85
Cn1cc(-n2ncc3cc(N4C(=O)C[C@H](NC(=O)C(C)(F)F)[C@H]4c4ccc(F)cc4)ccc32)ccc1=O [Example 17, 2,2-difluoro-N-((2R,3S)-2-(4-fluorophenyl)-1-(1-(1-methyl-6-oxo-1,6-dihydropyridin-3-yl)-1H-indazol-5-yl)-5-oxopyrrolidin-3-yl)propanamide]	–	> 85
Cn1cc(-n2ncc3cc(N4C(=O)C[C@H](NC(=O)C(C)(F)F)[C@H]4c4ccccc4)ccc32)ccc1=O [Example 4, 2,2-difluoro-N-((2R,3S)-1-(1-(1-methyl-6-oxo-1,6-dihydropyridin-3-yl)-1H-indazol-5-yl)-5-oxo-2-phenylpyrrolidin-3-yl)propanamide]	–	> 85
COc1cc([C@@H]2[C@@H](NC(=O)C(C)(F)F)CC(=O)N2c2ccc3c(cnn3-c3ccc(=O)n(C)c3)c2)ccc1F [Example 15, 2,2-difluoro-N-((2R,3S)-2-(4-fluoro-3-methoxyphenyl)-1-(1-(1-methyl-6-oxo-1,6-dihydropyridin-3-yl)-1H-indazol-5-yl)-5-oxopyrrolidin-3-yl)propanamide]	60 to 85	–
Cn1cc(-n2ncc3cc(N4C(=O)C[C@H](NC(=O)C(C)(F)F)C4c4ccccc4)ccc32)cn1 (stereo in doubt) [Example 46, N-(trans-1-(1-(1-methyl-1H-pyrazol-4-yl)-1H-indazol-5-yl)-5-oxo-2-phenylpyrrolidin-3-yl)-2,2-difluoropropanamide]	–	> 85
Cn1cc(-n2ncc3cc(N4C(=O)C[C@H](NC(=O)C(C)(F)F)C4c4ccc5c(c4)OCCO5)ccc32)ccc1=O (stereo in doubt) [Example 3, trans-2,2-difluoro-N-(5-oxo-2-(2,3-dihydrobenzo[b][1,4]dioxin-6-yl)-1-(1-(1-methyl-6-oxo-1,6-dihydropyridin-3-yl)-1H-indazol-5-yl)pyrrolidin-3-yl)propanamide]	> 85	–
COc1cc(-n2ncc3cc(N4C(=O)C[C@H](NC(=O)C(C)(F)F)C4c4ccccc4)ccc32)ccn1 (stereo in doubt) [Example 27, trans-2,2-difluoro-N-(1-(1-(2-methoxypyridin-4-yl)-1H-indazol-5-yl)-5-oxo-2-phenylpyrrolidin-3-yl)propanamide]	–	60 to 85
Cc1cc(-n2ncc3cc(N4C(=O)C[C@H](NC(=O)C(C)(F)F)C4c4ccccc4)ccc32)ccn1 (stereo in doubt) [Example 25, trans-2,2-difluoro-N-(1-(1-(2-methylpyridin-4-yl)-1H-indazol-5-yl)-5-oxo-2-phenylpyrrolidin-3-yl)propanamide]	–	> 85

The next lines start with results.

inhibition at 1 µM [1] [%]	Compound	inhibition at 1 µM [%]
60 to 85	Cn1cc(-n2ncc3cc(N4C(=O)C[C@H](NC(=O)C5(C)CC5)[C@H]4c4ccccc4)ccc32)ccc1=O [Example 26, 1-methyl-N-((2R,3S)-1-(1-(1-methyl-6-oxo-1,6-dihydropyridin-3-yl)-1H-indazol-5-yl)-5-oxo-2-phenylpyrrolidin-3-yl)cyclopropane-1-carboxamide]	–
60 to 85	Cn1ccc(Cn2ncc3cc(N4C(=O)C[C@H](NC(=O)C(C)(F)F)C4c4ccccc4)ccc32)cc1=O (stereo in doubt) [Example 38, trans-2,2-difluoro-N-(1-(1-((1-methyl-2-oxo-1,2-dihydropyridin-4-yl)methyl)-1H-indazol-5-yl)-5-oxo-2-phenylpyrrolidin-3-yl)propanamide]	–
> 85	Cc1ccccc1[C@@H]1[C@@H](NC(=O)C(C)(F)F)CC(=O)N1c1ccc2c(cnn2-c2ccc(=O)n(C)c2)c1 [Example 43, 2,2-difluoro-N-((2R,3S)-1-(1-(1-methyl-6-oxo-1,6-dihydropyridin-3-yl)-1H-indazol-5-yl)-5-oxo-2-(o-tolyl)pyrrolidin-3-yl)propanamide]	–
60 to 85	COc1cc([C@@H]2[C@@H](NC(=O)C(C)(F)F)CC(=O)N2c2ccc3c(cnn3-c3ccc(=O)n(C)c3)c2)ccn1 [Example 42, 2,2-difluoro-N-((2R,3S)-2-(2-methoxypyridin-4-yl)-1-(1-(1-methyl-6-oxo-1,6-dihydropyridin-3-yl)-1H-indazol-5-yl)-5-oxopyrrolidin-3-yl)propanamide]	–
40 to 60	COc1cc(Cn2ncc3cc(N4C(=O)C[C@H](NC(=O)C5CC5)C4c4ccccc4)ccc32)ccn1 (stereo in doubt) [Example 40, trans-N-(1-(1-((2-methoxypyridin-4-yl)methyl)-1H-indazol-5-yl)-5-oxo-2-phenylpyrrolidin-3-yl)cyclopropanecarboxamide]	–
